According to US10844044B2 (Vanderbilt University, priority 2018, dated 2020):
Like-named read-outs stand apart in the source and are kept apart here.

Experiments:
[1] = target: WDR5 (Homo sapiens (Human), UniProt P61964); assay: TR-FRET binding assay (displacement of 10mer-Thr-FAM probe from WDR5)
[2] = tested on: MV4:11 human cancer cell lines; assay: Anti-proliferative activity, CellTiter-Glo viability assay, 7 day protocol; format: cell-based; settings: Homo sapiens, MV4-11, 168 h, MV4:11 cells, 7 day incubation, read-out: GI50 on cellular proliferation of MV4:11 human cancer cell lines
In short: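 MV4:11 cells seeded at 3600 cells/ml and exposed to compounds for 7 days, 0.1% DMSO final. Viability measured by CellTiter-Glo luminescence. GI50 from three biological replicates, each in technical triplicate, given as mean ± S.E.M.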

[3] = read-out: Ki for Inhibition of WDR5 by TR-FRET assay, TR-FRET, 10mer-Thr-FAM probe, WDR5-His tag 2 nM, pH 7.0
[4] = read-out: Ki for Inhibition of WDR5 by TR-FRET assay

| Structure (SMILES) | Ki [1, 3] [nM] | GI50 [2] [nM] | Ki [1, 4] [nM] | Ki [1] [nM] |
| --- | --- | --- | --- | --- |
| Cc1ccnc([C@@H](NC(=O)c2cc(Cn3ccn(C)c3=N)cc(-c3ccc(F)cc3C)c2)C2CC2)c1 [Example 91, (S)—N-(Cyclopropyl(4-methylpyridin-2-yl)methyl)-4′-fluoro-5-((2-imino-3-methyl-2,3-dihydro-1H-imidazol-1-yl)methyl)-2′-methyl-[1,1′-biphenyl]-3-carboxamide] | < 0.1 | 210 | – | – |
| COc1cc(CNC(=O)c2cc(Cn3ccn(C)c3=N)cc(-c3ccc(F)cc3C(F)(F)F)c2)cc(OC)c1 [Example 98, N-(3,5-Dimethoxybenzyl)-4′-fluoro-5-((2-imino-3-methyl-2,3-dihydro-1H-imidazol-1-yl)methyl)-2′-(trifluoromethyl)-[1,1′-biphenyl]-3-carboxamide] | 0.06 | 160 | – | – |
| Cn1ccn(Cc2cc(C(=O)NC(CC(=O)O)c3ccc(Cl)c(Cl)c3)nc(-c3ccc(F)cc3C(F)(F)F)c2)c1=N (stereo not shown) [Example 104, 3-(3,4-Dichlorophenyl)-3-(6-(4-fluoro-2-(trifluoromethyl)phenyl)-4-((2-imino-3-methyl-2,3-dihydro-1H-imidazol-1-yl)methyl)picolinamido)propanoic acid] | 0.13 | 14000 | – | – |
| Cc1ccnc(C(NC(=O)c2cc(Cn3ccn(C)c3=N)cc(-c3ccc(F)cc3C(F)(F)F)c2F)C2CC2)c1 (stereo not shown) [Example 105, N-(Cyclopropyl(4-methylpyridin-2-yl)methyl)-2,4′-difluoro-5-((2-imino-3-methyl-2,3-dihydro-1H-imidazol-1-yl)methyl)-2′-(trifluoromethyl)-[1,1′-biphenyl]-3-carboxamide] | < 0.1 | 400 | – | – |
| Cc1cc([C@@H](NC(=O)c2cc(Cn3ccn(C)c3=N)cc(-c3ccc(F)cc3C(F)(F)F)n2)C2CC2)ccc1F [Example 107, (S)—N-(Cyclopropyl(4-fluoro-3-methylphenyl)methyl)-6-(4-fluoro-2-(trifluoromethyl)phenyl)-4-((2-imino-3-methyl-2,3-dihydro-1H-imidazol-1-yl)methyl)picolinamide] | 0.23 | 950 | – | – |
| COc1cc(CNC(=O)c2cc(Cn3ccn(C)c3=N)cc(-c3ccc(F)cc3C(F)(F)F)c2F)cc(OC)c1 [Example 108, N-(3,5-Dimethoxybenzyl)-2,4′-difluoro-5-((2-imino-3-methyl-2,3-dihydro-1H-imidazol-1-yl)methyl)-2′-(trifluoromethyl)-[1,1′-biphenyl]-3-carboxamide] | < 0.1 | 310 | – | – |
| Cc1cc(CNC(=O)c2cc(Cn3ccn(C)c3=N)cc(-c3ccc(F)cc3C(F)(F)F)c2F)ccc1Cl [Example 111, N-(4-Chloro-3-methylbenzyl)-2,4′-difluoro-5-((2-imino-3-methyl-2,3-dihydro-1H-imidazol-1-yl)methyl)-2′-(trifluoromethyl)-[1,1′-biphenyl]-3-carboxamide] | < 0.1 | 300 | – | – |
| CCn1ccn(Cc2cc(C(=O)N[C@H](c3ccc(F)c(C)c3)C3CC3)cc(-c3cccnc3C(F)(F)F)c2)c1=N [Example 114, (S)—N-(Cyclopropyl(4-fluoro-3-methylphenyl)methyl)-3-((3-ethyl-2-imino-2,3-dihydro-1H-imidazol-1-yl)methyl)-5-(2-(trifluoromethyl)pyridin-3-yl)benzamide] | – | 300 | < 0.1 | – |
| Cc1cc([C@@H](NC(=O)c2cc(Cn3ccn(C4CC4)c3=N)cc(-c3cccnc3C(F)(F)F)c2)C2CC2)ccc1F [Example 115, (S)—N-(Cyclopropyl(4-fluoro-3-methylphenyl)methyl)-3-((3-cyclopropyl-2-imino-2,3-dihydro-1H-imidazol-1-yl)methyl)-5-(2-(trifluoromethyl)pyridin-3-yl)benzamide] | < 0.1 | < 100 | – | – |
| CCn1ccn(Cc2cc(C(=O)NCc3cc(OC)cc(OC)c3)cc(-c3ccc(F)cc3C)c2)c1=N [Example 116, N-(3,5-Dimethoxybenzyl)-5-((3-ethyl-2-imino-2,3-dihydro-1H-imidazol-1-yl)methyl)-4′-fluoro-2′-methyl-[1,1′-biphenyl]-3-carboxamide] | 0.4 | 570 | – | – |
| COc1cc(CNC(=O)c2cc(Cn3ccn(C4CC4)c3=N)cc(-c3ccc(F)cc3C)c2)cc(OC)c1 [Example 117, 5-((3-Cyclopropyl-2-imino-2,3-dihydro-1H-imidazol-1-yl)methyl)-N-(3,5-dimethoxybenzyl)-4′-fluoro-2′-methyl-[1,1′-biphenyl]-3-carboxamide] | 0.15 | 310 | – | – |
| COc1cc(OC)cc(C(NC(=O)c2cc(Cn3ccn(C)c3=N)cc(-c3ccnn3C(C)C)c2)C2CC2)c1 (stereo not shown) [Example 118, N-(Cyclopropyl(3,5-dimethoxyphenyl)methyl)-3-((2-imino-3-methyl-2,3-dihydro-1H-imidazol-1-yl)methyl)-5-(1-isopropyl-1H-pyrazol-5-yl)benzamide] | 0.83 | 6300 | – | – |
| Cc1cc([C@@H](NC(=O)c2cc(Cn3ccn(C)c3=N)cc(-c3cccnc3C(F)(F)F)n2)C2CC2)ccc1F [Example 119, (S)—N-(Cyclopropyl(4-fluoro-3-methylphenyl)methyl)-4-((2-imino-3-methyl-2,3-dihydro-1H-imidazol-1-yl)methyl)-2′-(trifluoromethyl)-[2,3′-bipyridine]-6-carboxamide] | 0.16 | 7600 | – | – |
| Cc1ccnc([C@@H](NC(=O)c2cc(Cn3ccn(C)c3=N)cc(-c3ccc(F)cc3C(F)(F)F)c2F)C2CC2)c1 [Example 120, (S)—N-(Cyclopropyl(4-methylpyridin-2-yl)methyl)-2,4′-difluoro-5-((2-imino-3-methyl-2,3-dihydro-1H-imidazol-1-yl)methyl)-2′-(trifluoromethyl)-[1,1′-biphenyl]-3-carboxamide] | < 0.1 | 220 | – | – |
| CC(=O)/N=c1\n(C)ccn1Cc1cc(C(=O)NCc2ccc(Cl)c(Cl)c2)cc(-c2ccc(F)nc2C)c1 [Example 121, (E)-3-((2-(acetylimino)-3-methyl-2,3-dihydro-1H-imidazol-1-yl)methyl)-N-(3,4-dichlorobenzyl)-5-(6-fluoro-2-methylpyridin-3-yl)benzamide] | – | 5900 | > 33 | – |
| CCOC(=O)/N=c1\n(C)ccn1Cc1cc(C(=O)NCc2ccc(Cl)c(Cl)c2)cc(-c2ccc(F)nc2C)c1 [Example 122, Ethyl (1-(3-((3,4-dichlorobenzyl)carbamoyl)-5-(6-fluoro-2-methylpyridin-3-yl)benzyl)-3-methyl-1,3-dihydro-2H-imidazol-2-ylidene)carbamate] | – | 4200 | > 33 | – |
| Cc1cc([C@@H](NC(=O)c2cc(Cn3ccn(C)c3=N)cc(-c3cn(C)nc3C(F)(F)F)c2)C2CC2)ccc1F [Example 125, (S)—N-(Cyclopropyl(4-fluoro-3-methylphenyl)methyl)-3-((2-imino-3-methyl-2,3-dihydro-1H-imidazol-1-yl)methyl)-5-(1-methyl-3-(trifluoromethyl)-1H-pyrazol-4-yl)benzamide] | – | 180 | – | < 0.1 |
| Cc1cc([C@@H](NC(=O)c2cc(Cn3ccn(C)c3=N)cc(-c3cccnc3OC(F)F)c2)C2CC2)ccc1F [Example 127, (S)—N-(Cyclopropyl(4-fluoro-3-methylphenyl)methyl)-3-(2-(difluoromethoxy)pyridin-3-yl)-5-((2-imino-3-methyl-2,3-dihydro-1H-imidazol-1-yl)methyl)benzamide] | 0.21 | 730 | – | – |
| Cc1cc([C@@H](NC(=O)c2cc(Cn3ccn(C)c3=N)cc(-c3cccnc3C(F)(F)F)c2F)C2CC2)ccc1F [Example 131, (S)—N-(Cyclopropyl(4-fluoro-3-methylphenyl)methyl)-2-fluoro-5-((2-imino-3-methyl-2,3-dihydro-1H-imidazol-1-yl)methyl)-3-(2-(trifluoromethyl)pyridin-3-yl)benzamide] | < 0.1 | 140 | – | – |
| Cc1ccnc([C@@H](NC(=O)c2cc(Cn3ccn(C)c3=N)cc(-c3cccnc3C(F)(F)F)c2F)C2CC2)c1 [Example 132, (S)—N-(Cyclopropyl(4-methylpyridin-2-yl)methyl)-2-fluoro-5-((2-imino-3-methyl-2,3-dihydro-1H-imidazol-1-yl)methyl)-3-(2-(trifluoromethyl)pyridin-3-yl)benzamide] | 0.13 | 610 | – | – |
| Cc1cc([C@@H](NC(=O)c2cc(Cn3ccn(C)c3=N)cc(C3CC3)c2)C2CC2)ccc1F [Example 139, (S)-3-Cyclopropyl-N-(cyclopropyl(4-fluoro-3-methylphenyl)methyl)-5-((2-imino-3-methyl-2,3-dihydro-1H-imidazol-1-yl)methyl)benzamide] | – | 730 | 0.18 | – |
| Cc1cc([C@@H](NC(=O)c2cc(Cn3ccn(C4CC4)c3=N)cc(-c3ccc(F)cc3Cl)c2)C2CC2)ccc1F [Example 141, (S)-2′-Chloro-N-(cyclopropyl(4-fluoro-3-methylphenyl)methyl)-5-((3-cyclopropyl-2-imino-2,3-dihydro-1H-imidazol-1-yl)methyl)-4′-fluoro-[1,1′-biphenyl]-3-carboxamide] | < 0.1 | < 100 | – | – |
| Cc1cc([C@@H](NC(=O)c2cc(Cn3ccn(C4CC4)c3=N)cc(-c3cn(C)nc3C(F)(F)F)c2)C2CC2)ccc1F [Example 142, (S)—N-(Cyclopropyl(4-fluoro-3-methylphenyl)methyl)-3-((3-cyclopropyl-2-imino-2,3-dihydro-1H-imidazol-1-yl)methyl)-5-(1-methyl-3-(trifluoromethyl)-1H-pyrazol-4-yl)benzamide] | < 0.1 | < 100 | – | – |
